# Laboratory results published in PubChem BioAssay AID330 (DTP/NCI, 2004).
# Several values for one entry are separate records, joined by “and”; a condition that tells them apart may be missing. Identical values can stand only once. Toxic doses and inconclusive results are not listed.
# Test system: P388 leukemia ip, CD2F1 mice, survival T/C
# Assay: NCI In Vivo Anticancer Drug Screen. Data for tumor model P388 Leukemia (intraperitoneal) in CD2F1 (CDF1) mice
# Details: endpoint: median survival time, higher = longer survival
# Method in brief: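 Mice carrying the transplanted tumor received test compound or vehicle. Survival was recorded in each group, and the value is the treated-group measurement divided by that of the vehicle-treated control group.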
# [1] = dose: 100.0 mg/kg/injection, schedule: Q04DX003 (ip), vehicle: saline
# [2] = dose: 200.0 mg/kg/injection, schedule: Q04DX003 (ip), vehicle: saline
# [3] = dose: 25.0 mg/kg/injection, schedule: Q01DX005 (ip), vehicle: Klucel (hydroxypropylcellulose) (HPC)
# [4] = dose: 50.0 mg/kg/injection, schedule: Q01DX005 (ip), vehicle: Klucel (hydroxypropylcellulose) (HPC)
# [5] = dose: 60.0 mg/kg/injection, schedule: Q01DX005 (ip), vehicle: saline with Tween-80
# [6] = dose: 120.0 mg/kg/injection, schedule: Q01DX005 (ip), vehicle: saline with Tween-80
# [7] = dose: 240.0 mg/kg/injection, schedule: Q01DX005 (ip), vehicle: saline with Tween-80
# [8] = dose: 50.0 mg/kg/injection, schedule: Q01DX009 (ip), vehicle: Klucel (hydroxypropylcellulose) (HPC)
# [9] = dose: 100.0 mg/kg/injection, schedule: Q01DX009 (ip), vehicle: Klucel (hydroxypropylcellulose) (HPC)
# [10] = dose: 200.0 mg/kg/injection, schedule: Q01DX009 (ip), vehicle: Klucel (hydroxypropylcellulose) (HPC)
# [11] = dose: 50.0 mg/kg/injection, schedule: Q01DX009 (ip), vehicle: saline with Tween-80
# [12] = dose: 100.0 mg/kg/injection, schedule: Q01DX009 (ip), vehicle: saline with Tween-80
# [13] = dose: 200.0 mg/kg/injection, schedule: Q01DX009 (ip), vehicle: saline with Tween-80
# [14] = dose: 12.5 mg/kg/injection, schedule: Q01DX005 (ip), vehicle: Klucel (hydroxypropylcellulose) (HPC)
# [15] = dose: 6.25 mg/kg/injection, schedule: Q01DX009 (ip), vehicle: saline
structure (smiles),measurement,setting,value
COc1ccc([N+](=O)[O-])c(C=O)c1OS(=O)(=O)c1ccc(C)c([N+](=O)[O-])c1,T/C,"dose: 25.0 mg/kg/injection, schedule: Q01DX009 (ip), vehicle: distilled water + Tween-80",93 % of control
same,T/C,"dose: 100.0 mg/kg/injection, schedule: Q01DX009 (ip), vehicle: distilled water + Tween-80",98 % of control
same,T/C,"dose: 200.0 mg/kg/injection, schedule: Q01DX009 (ip), vehicle: distilled water + Tween-80",90 % of control
same,T/C,"dose: 400.0 mg/kg/injection, schedule: Q01DX009 (ip), vehicle: distilled water + Tween-80",90 % of control
CC1=C(C)C(=O)c2nn(C)nc2C1=O,T/C,"dose: 6.25 mg/kg/injection, schedule: Q01DX001 (ip), vehicle: saline",100 % of control
same,T/C,"dose: 12.5 mg/kg/injection, schedule: Q01DX001 (ip), vehicle: saline",98 % of control
same,T/C,"dose: 25.0 mg/kg/injection, schedule: Q01DX001 (ip), vehicle: saline",99 % of control
NC(=O)C(Cl)Cn1ccnc1 (centres undefined),T/C,"dose: 50.0 mg/kg/injection, schedule: Q04DX003 (ip), vehicle: saline",103 % of control
same,T/C,[1],100 % of control
same,T/C,[2],110 % of control
OCC(O)COCCCCCCCCCCCCCC1C=CCC1 (centres undefined),T/C,[1],95 % of control
same,T/C,[2],89 % of control
same,T/C,"dose: 400.0 mg/kg/injection, schedule: Q04DX003 (ip), vehicle: saline",96 % of control
COC(=O)c1ccc(SCC(=O)c2ccc([N+](=O)[O-])o2)cc1,T/C,"dose: 50.0 mg/kg/injection, schedule: Q01DX009 (ip), vehicle: suspension in saline",88 % of control
same,T/C,"dose: 100.0 mg/kg/injection, schedule: Q01DX009 (ip), vehicle: suspension in saline",97 % of control
CN(C)c1ccc(/[N+]([O-])=N/N2C(=O)c3ccccc3C2=O)cc1,T/C,[3],105 % of control
same,T/C,[4],97 % of control
same,T/C,"dose: 100.0 mg/kg/injection, schedule: Q01DX005 (ip), vehicle: Klucel (hydroxypropylcellulose) (HPC)",101 % of control
same,T/C,"dose: 200.0 mg/kg/injection, schedule: Q01DX005 (ip), vehicle: Klucel (hydroxypropylcellulose) (HPC)",110 % of control
Cn1cc(/C=C/C(=O)c2ccccc2[N+](=O)[O-])c2ccccc21,T/C,[5],95 % of control
same,T/C,[6],89 % of control
same,T/C,[7],89 % of control
Cn1c(O)c(N=NC(N)=S)c2ccccc21,T/C,"dose: 100.0 mg/kg/injection, schedule: Q04DX003 (ip), vehicle: saline with Tween-80",95 % of control
same,T/C,"dose: 200.0 mg/kg/injection, schedule: Q04DX003 (ip), vehicle: saline with Tween-80",87 % of control
CN(C)c1ccc(/C=N/NC(=O)CNC(=O)c2ccccc2)cc1,T/C,[5],94 % of control
same,T/C,[6],92 % of control
same,T/C,[7],96 % of control
CC1(C)CC(=O)C=C(NCCCCCCNC2=CC(=O)CC(C)(C)C2)C1,T/C,[8],113 % of control
same,T/C,[9],103 % of control
same,T/C,[10],95 % of control
O=C1OC2C(O)COC2(N=Nc2ccc(Cl)cc2)/C1=N/Nc1ccccc1 (centres undefined),T/C,"dose: 6.25 mg/kg/injection, schedule: Q01DX005 (ip), vehicle: saline with Tween-80",104 % of control
same,T/C,"dose: 12.5 mg/kg/injection, schedule: Q01DX005 (ip), vehicle: saline with Tween-80",93 % of control
same,T/C,"dose: 25.0 mg/kg/injection, schedule: Q01DX005 (ip), vehicle: saline with Tween-80",89 % of control
same,T/C,"dose: 200.0 mg/kg/injection, schedule: Q01DX005 (ip), vehicle: saline with Tween-80",90 % of control
CC(=O)N1C2=CCCC3CCCCC23c2ccccc21 (centres undefined),T/C,[11],98 % of control
same,T/C,[12],93 % of control
same,T/C,[13],89 % of control
same,T/C,"dose: 400.0 mg/kg/injection, schedule: Q01DX009 (ip), vehicle: saline with Tween-80",95 % of control
NCC(=O)c1ccc2oc3ccccc3c2c1,T/C,[9],112 % of control
same,T/C,[10],118 % of control
Cc1cc(N(CCCl)CCCl)ccc1C=Nc1ccccc1C(=O)O,T/C,"dose: 25.0 mg/kg/injection, schedule: Q01DX009 (ip), vehicle: saline with Tween-80",117 % of control
same,T/C,[11],115 % of control
same,T/C,[13],150 % of control
CC1CCC2(NC1)OC1CC3C4CCC5CC(OC6OC(CO)C(OC7OC(CO)C(O)C(OC8OCC(O)C(O)C8O)C7OC7OC(CO)C(O)C(O)C7O)C(O)C6O)CCC5(C)C4CCC3(C)C1C2C (centres undefined),T/C,"dose: 3.12 mg/kg/injection, schedule: Q04DX003 (ip), vehicle: Klucel (hydroxypropylcellulose) (HPC)",102 % of control
same,T/C,"dose: 6.25 mg/kg/injection, schedule: Q04DX003 (ip), vehicle: Klucel (hydroxypropylcellulose) (HPC)",100 % of control
same,T/C,"dose: 12.5 mg/kg/injection, schedule: Q04DX003 (ip), vehicle: Klucel (hydroxypropylcellulose) (HPC)",100 % of control and 91 % of control
same,T/C,"dose: 50.0 mg/kg/injection, schedule: Q04DX003 (ip), vehicle: Klucel (hydroxypropylcellulose) (HPC)",89 % of control and 93 % of control
O=c1[nH]c(Cl)nc2n[nH]c(Br)c12,T/C,"dose: 100.0 mg/kg/injection, schedule: Q01DX001 (ip), vehicle: saline with Tween-80",98 % of control
same,T/C,"dose: 200.0 mg/kg/injection, schedule: Q01DX001 (ip), vehicle: saline with Tween-80",103 % of control
O=C1NNC(=O)c2ccccc2C(=O)S1,T/C,[5],102 % of control
same,T/C,[6],101 % of control
same,T/C,[7],97 % of control
Cc1cc(C)cc(C(=O)N=C(c2ccncc2)c2nc(-c3ccccc3)oc2O)c1,T/C,[5],88 % of control
same,T/C,[6],86 % of control
same,T/C,[7],88 % of control
CC(N)(CCSCP(=O)(O)O)C(=O)O (centres undefined),T/C,[5],99 % of control
same,T/C,[6],91 % of control
COc1ccc(-c2c(S(C)(=O)=O)nsc2S(C)(=O)=O)cc1,T/C,[8],105 % of control
same,T/C,[9],106 % of control
same,T/C,[10],97 % of control
Cc1[nH]c2c(ccc3ccccc32)c(=O)c1N=Nc1ccc(C(=N)N)cc1,T/C,"dose: 50.0 mg/kg/injection, schedule: Q01DX005 (ip), vehicle: Klucel + Tween-80",124 % of control
same,T/C,"dose: 200.0 mg/kg/injection, schedule: Q01DX005 (ip), vehicle: Klucel + Tween-80",154 % of control
same,T/C,"dose: 400.0 mg/kg/injection, schedule: Q01DX005 (ip), vehicle: Klucel + Tween-80",168 % of control
CNc1ccccc1C(=O)NN=C1c2ccccc2-c2ccccc21,T/C,[11],100 % of control
same,T/C,[12],106 % of control
same,T/C,[13],99 % of control
N#CCSCC#N,T/C,[5],100 % of control
same,T/C,[6],100 % of control
same,T/C,[7],104 % of control
CC(=O)OCC1(C)NC(=O)c2ccccc2O1 (centres undefined),T/C,[11],109 % of control (2×) and 120 % of control
same,T/C,[12],114 % of control and 118 % of control
same,T/C,[13],100 % of control
O=S(=O)(/C=C/c1ccccc1)OCCCl,T/C,[11],103 % of control
same,T/C,[12],107 % of control
same,T/C,[13],107 % of control
O=C1c2ccccc2NC2(C(=O)Nc3ccccc32)N1N1CCOCC1 (centres undefined),T/C,[14],100 % of control
same,T/C,[3],100 % of control
same,T/C,[4],101 % of control
CNCCCC1c2ccccc2C=Cc2ccccc21,T/C,[15],100 % of control
same,T/C,"dose: 12.5 mg/kg/injection, schedule: Q01DX009 (ip), vehicle: saline",90 % of control
N#CCCS(=O)(=O)c1ccc(Cl)cc1,T/C,"dose: 50.0 mg/kg/injection, schedule: Q01DX009 (ip), vehicle: saline",99 % of control
same,T/C,"dose: 100.0 mg/kg/injection, schedule: Q01DX009 (ip), vehicle: saline",100 % of control
same,T/C,"dose: 200.0 mg/kg/injection, schedule: Q01DX009 (ip), vehicle: saline",100 % of control
Cc1ccc(-c2cn3ccsc3n2)cc1,T/C,"dose: 100.0 mg/kg/injection, schedule: Q01DX001 (ip), vehicle: Klucel (hydroxypropylcellulose) (HPC)",95 % of control
same,T/C,"dose: 200.0 mg/kg/injection, schedule: Q01DX001 (ip), vehicle: Klucel (hydroxypropylcellulose) (HPC)",97 % of control
O=C1c2ccccc2C(=O)c2c1nc1sccn21,T/C,"dose: 3.12 mg/kg/injection, schedule: Q01DX005 (ip), vehicle: Klucel (hydroxypropylcellulose) (HPC)",104 % of control
same,T/C,"dose: 6.25 mg/kg/injection, schedule: Q01DX005 (ip), vehicle: Klucel (hydroxypropylcellulose) (HPC)",108 % of control
same,T/C,[14],102 % of control and 104 % of control
same,T/C,[4],105 % of control
CN(S(=O)(=O)CC(F)(F)F)S(=O)(=O)C(F)(F)F,T/C,"dose: 1.56 mg/kg/injection, schedule: Q01DX009 (ip), vehicle: saline",120 % of control
same,T/C,"dose: 2.05 mg/kg/injection, schedule: Q01DX009 (ip), vehicle: saline",93 % of control and 97 % of control
same,T/C,"dose: 3.12 mg/kg/injection, schedule: Q01DX009 (ip), vehicle: saline",101 % of control and 102 % of control
same,T/C,"dose: 4.68 mg/kg/injection, schedule: Q01DX009 (ip), vehicle: saline",102 % of control and 111 % of control
same,T/C,[15],100 % of control
